Read-outs that look alike come from different tables or passages of the source.
Legend:
[1] = molecular target: T1, CYP2C19 (Homo sapiens, UniProt P33261); assay: CYP enzyme single point inhibition, human liver microsomes, 2C19; assay type: in vitro ADME; conditions: single point method
T1 construct: from tissue; host or cells: human liver microsomes
Protocol: (§1) Using human liver microsomal incubation system, the inhibition of CYP450 enzyme subtypes by compounds was rapidly predicted by single point method.
(§2) 2.5 mM NADPH: 100 mM phosphate buffer was added to 4.165 mg of NADPH (reduced nicotinamide adenine dinucleotide phosphate) to 2 mL. 0.25 mg/mL microsome: 4 mL of 100 mM phosphate buffer was added to 50 μL of 20 mg/mL microsome and mixed well.
(§3) The embodiment compound to be tested was weighed and diluted to 10 mM with DMSO and then diluted to 100 μM with 100 mM phosphate buffer.
(§4) • 1. In a 96-well plate, 40 μL of liver microsomes, 10 μL of substrate, 10 μL of compound to be tested were pre-incubated for 3 min. • 2. 40 μL of NADPH was added. • 3. 300 μL of acetonitrile termination solution containing internal standard was added at 20 min. • 4. Centrifugal injection.

[2] = molecular target: T2, CYP3A4 (Homo sapiens, UniProt P08684); assay: CYP enzyme single point inhibition, human liver microsomes, 3A4; assay type: in vitro ADME; conditions: single point method
T2 construct: from tissue; host or cells: human liver microsomes
Protocol: as §1, §2, §3, §4

[3] = molecular target: T3, CYP1A2 (Homo sapiens, UniProt P05177); assay: CYP enzyme single point inhibition, human liver microsomes, 1A2; assay type: in vitro ADME; conditions: single point method
T3 construct: from tissue; host or cells: human liver microsomes
T3 sequence (P05177 1-516): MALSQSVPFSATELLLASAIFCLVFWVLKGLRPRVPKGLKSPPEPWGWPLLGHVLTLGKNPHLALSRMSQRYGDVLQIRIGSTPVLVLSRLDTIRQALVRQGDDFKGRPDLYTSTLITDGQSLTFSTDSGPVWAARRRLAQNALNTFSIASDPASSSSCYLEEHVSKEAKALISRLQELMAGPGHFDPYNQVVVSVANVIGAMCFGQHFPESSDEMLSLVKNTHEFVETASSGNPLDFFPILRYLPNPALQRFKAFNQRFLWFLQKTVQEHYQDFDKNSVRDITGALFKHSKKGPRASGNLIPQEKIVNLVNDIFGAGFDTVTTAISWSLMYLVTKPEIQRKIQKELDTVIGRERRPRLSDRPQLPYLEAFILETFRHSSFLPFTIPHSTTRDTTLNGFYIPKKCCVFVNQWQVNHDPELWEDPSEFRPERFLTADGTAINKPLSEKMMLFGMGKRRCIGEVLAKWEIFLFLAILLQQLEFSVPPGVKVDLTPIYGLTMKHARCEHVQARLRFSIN
Protocol: Using human liver microsomal incubation system, the inhibition of CYP450 enzyme subtypes by compounds was rapidly predicted by single point method. 2.5 mM NADPH: 100 mM phosphate buffer was added to 4.165 mg of NADPH (reduced nicotinamide adenine dinucleotide phosphate) to 2 mL. 0.25 mg/mL microsome: 4 mL of 100 mM phosphate buffer was added to 50 μL of 20 mg/mL microsome and mixed well. The embodiment compound to be tested was weighed and diluted to 10 mM with DMSO and then diluted to 100 μM with 100 mM phosphate buffer. • 1. In a 96-well plate, 40 μL of liver microsomes, 10 μL of substrate, 10 μL of compound to be tested were pre-incubated for 3 min. • 2. 40 μL of NADPH was added. • 3. 300 μL of acetonitrile termination solution containing internal standard was added at 20 min. • 4. Centrifugal injection.

[4] = system: human pancreatic cancer cell MiaPaca 2 xenograft; assay: Tumor inhibition on MiaPaca 2 transplanted tumor (CDX) model; assay type: in vivo, BALB/c nude mice; conditions: for TGI (%) Day 21 / tumor volume (mm^3, Mean ± SD) Day 21 / ΔT/ΔC(%) Day 21: Day 21, 6 mg/kg QD×3 w oral; for tumor volume (mm^3, Mean ± SD) Day 0: baseline Day 0, 6 mg/kg QD×3 w oral
Protocol: MiaPaca 2 cells were removed from the cell bank, revived and added to DMEM medium (containing 10% FBS, 1% Glu, 1% P/S) and incubated in a CO2 incubator (incubator temperature was 37° C., CO2 concentration was 5%). After the cells were spread to 80-90% of the bottom of the culture flask, the cells were continued to be cultured in the CO2 incubator. The process was repeated until the number of cells met the in vivo pharmacological inoculation requirement, and the cells in logarithmic growth period were collected and counted with an automatic cell counter, resuspended with PBS and Matrigel (volume ratio 1:1) according to the count results, made into a cell suspension (the density was 8×10^7/mL), and placed in an ice box for use.
BALB/c nude mice, female, 6-8 weeks old, weighing about 18-22 g. The mice were kept in an environment free of special pathogens and in a single ventilated cage with 5 mice in each cage. All cages, bedding and water were sterilized before use, and all animals had free access to standard certified commercial laboratory diets. Nude mice were labeled with disposable universal ear tags for mice and rats before the start of the experiment, and the skin of the inoculation site was disinfected with 75% medical alcohol before inoculation, 0.1 mL (containing 8*10^6 cells) of MiaPaca 2 tumor cells were inoculated subcutaneously on the right back of each mouse. When the tumor volume reached 100-200 mm^3, the group administration was started. The tested compounds were administered daily by oral intragastric administration, dosage/frequency (6 mg/kg QD×3 w), and the efficacy of each group at the end of the experiment was shown in Table 29.
The tumor volume (mm^3) was measured with vernier caliper twice a week, the calculation formula was V=[…], wherein D and d were the long and short diameter of the tumor, respectively. The anti-tumor efficacy was determined by dividing the average tumor increased volume of the compound-treated animals by the average tumor increased volume of the untreated animals. The formula of tumor inhibition rate is: TGI (%)=1−[(Vt−V0) administration group/(Vt−V0) solvent control group]*100%. After the experiment, all animals were euthanized.

[5] = 3A4-M, read-out: IC50 (nM) 3A4-M
[6] = 3A4-T, read-out: IC50 (nM) 3A4-T

T2 sequence (P08684 whole entry): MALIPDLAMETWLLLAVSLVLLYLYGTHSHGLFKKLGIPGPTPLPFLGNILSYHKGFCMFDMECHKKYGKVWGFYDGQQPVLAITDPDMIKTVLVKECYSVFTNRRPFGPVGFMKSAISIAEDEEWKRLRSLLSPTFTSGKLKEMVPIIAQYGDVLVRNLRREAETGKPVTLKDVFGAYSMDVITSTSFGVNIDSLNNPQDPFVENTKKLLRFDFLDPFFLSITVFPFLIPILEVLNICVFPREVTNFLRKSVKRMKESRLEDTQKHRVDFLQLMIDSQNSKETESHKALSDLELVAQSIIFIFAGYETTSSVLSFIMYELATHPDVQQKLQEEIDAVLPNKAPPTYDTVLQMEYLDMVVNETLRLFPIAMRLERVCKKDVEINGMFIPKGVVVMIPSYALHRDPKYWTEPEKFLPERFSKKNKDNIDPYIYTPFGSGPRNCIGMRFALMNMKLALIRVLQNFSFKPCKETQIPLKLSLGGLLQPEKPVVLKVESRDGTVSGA
T1 sequence (P33261 whole entry): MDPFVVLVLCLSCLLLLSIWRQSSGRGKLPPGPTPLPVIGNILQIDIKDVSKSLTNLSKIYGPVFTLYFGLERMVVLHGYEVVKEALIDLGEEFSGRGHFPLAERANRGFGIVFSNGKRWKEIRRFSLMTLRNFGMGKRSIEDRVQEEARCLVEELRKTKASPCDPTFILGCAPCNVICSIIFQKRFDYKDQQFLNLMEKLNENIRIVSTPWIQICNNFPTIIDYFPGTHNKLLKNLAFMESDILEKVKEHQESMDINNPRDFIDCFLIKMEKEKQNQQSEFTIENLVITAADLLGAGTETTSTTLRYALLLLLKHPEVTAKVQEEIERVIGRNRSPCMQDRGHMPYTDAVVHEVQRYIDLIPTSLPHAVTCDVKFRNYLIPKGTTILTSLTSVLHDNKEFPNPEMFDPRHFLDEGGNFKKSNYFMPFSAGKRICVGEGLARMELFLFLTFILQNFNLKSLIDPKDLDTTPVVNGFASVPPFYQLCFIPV

Structure (SMILES) | IC50 [1] [nM] | IC50 [2, 5] [nM] | IC50 [2, 6] [nM] | IC50 [3] [nM] | TGI (%) Day 21 [4] [%] | tumor volume (mm^3, Mean ± SD) Day 21 [4] [mm^3] | ΔT/ΔC(%) Day 21 [4] [%] | tumor volume (mm^3, Mean ± SD) Day 0 [4] [mm^3]
C=CC(=O)N1C[C@H](C)N(c2nc(=O)n(-c3c(SC)ccnc3C(C)C)c3nc(-c4c(O)cccc4F)c(F)cc23)C[C@H]1C (single isomer, unassigned) [Embodiment 114-1] | > 100 | 19 | > 100 | > 100 | 162.36 | 67 ± 34 | −62.36 | 177 ± 38
C=CC(=O)N1C[C@H](C)N(c2nc(=O)n(-c3c(SC)ccnc3C(C)C)c3nc(-c4c(N)ccc(Cl)c4F)c(Cl)cc23)C[C@H]1C (single isomer, unassigned) [Embodiment 165-1] | 28.8 | 4.7 | 9.1 | 66.7 | 176.76 | 41 ± 19 | −76.76 | 178 ± 34

Source: patent US12497396B2, “Nitrogen-containing heterocyclic derivatives, method therefor and application therefor as inhibitors of KRAS G12C for the treatment of cancers” (SHANGHAI HANSOH BIOMEDICAL CO., LTD., priority 2019, dated 2025)
